Measured values as given in patent US20260250257A1, “ANTIBACTERIAL AND SYNERGISTIC ACTIVE COMPOUND AND USE THEREOF” (EAST CHINA UNIVERSITY OF SCIENCE AND TECHNOLOGY, priority 2023, published 2026).
Values after ≈ are worked out from the molar mass of the structure shown.

Experiments:
Assay type in all cases: cell-based
[1] = system: ATCC13883 strain (Klebsiella pneumoniae); test: Checkerboard antibacterial synergistic activity test with polymyxin E (FIC); set-up: key: FIC≤0.5 synergy; 0.5–1 additive; 1–2 indifferent; ≥2 antagonism; details: combined with polymyxin E
In short: (§1)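 Interaction is reported as the fractional inhibitory concentration, read after 16 h of growth at 37° C. in Mueller-Hinton broth. Each well paired one level of polymyxin E (prepared at 16 to 0.015 μg/ml) with one of the test agent (prepared at 256 to 4 μg/ml) before bacteria were added.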

[2] = system: ATCC19606 strain (Acinetobacter baumannii); test: as above; set-up: key: FIC≤0.5 synergy; 0.5–1 additive; 1–2 indifferent; ≥2 antagonism; details: combined with polymyxin E
In short: as §1

[3] = system: ATCC25922 strain (Escherichia coli); test: as above; set-up: key: FIC≤0.5 synergy; 0.5–1 additive; 1–2 indifferent; ≥2 antagonism; details: combined with polymyxin E
In short: as §1

[4] = system: ATCC9027 strain (Pseudomonas aeruginosa); test: as above; set-up: key: FIC≤0.5 synergy; 0.5–1 additive; 1–2 indifferent; ≥2 antagonism; details: combined with polymyxin E
In short: as §1

[5] = system: ATCC13883 strain (Klebsiella pneumoniae); test: Broth microdilution, antibacterial activity of the compound used alone; details: for MIC: read-out: Antibacterial activity of the compound of Formula I, ATCC13883
Excerpt: (§2) The broth microdilution method was used to test the antibacterial effects of the compounds of the present invention against various Gram-negative bacterial strains when used alone.

[6] = system: ATCC19606 strain (Acinetobacter baumannii); test: as above; details: for MIC: read-out: Antibacterial activity of the compound of Formula I, ATCC19606
Excerpt: as §2

[7] = system: ATCC25922 strain (Escherichia coli); test: as above; details: for MIC: read-out: Antibacterial activity of the compound of Formula I, ATCC25922
Excerpt: as §2

[8] = system: ATCC9027 strain (Pseudomonas aeruginosa); test: as above; details: for MIC: read-out: Antibacterial activity of the compound of Formula I, ATCC9027
Excerpt: as §2

MIC [5]	MIC [6]	MIC [7]	MIC [8]	Compound	Synergistic activity (FIC value) ATCC13883 [1]	Synergistic activity (FIC value) ATCC19606 [2]	Synergistic activity (FIC value) ATCC25922 [3]	Synergistic activity (FIC value) ATCC9027 [4]	Antibacterial activity of the compound of Formula I, ATCC13883 [5]	Antibacterial activity of the compound of Formula I, ATCC19606 [6]	Antibacterial activity of the compound of Formula I, ATCC25922 [7]	Antibacterial activity of the compound of Formula I, ATCC9027 [8]
–	–	–	–	Cc1ccccc1Oc1cccc(-c2coc(N=C3NCCCN3)n2)c1 [Compound I-152]	0.19	0.38	0.04	0.04	256 µg/mL	256 µg/mL	256 µg/mL	256 µg/mL
–	–	–	–	N#Cc1cccc(-c2csc(N=C(N)N)n2)c1 [Compound I-21]	0.52	0.52	0.63	1.25	128 µg/mL	256 µg/mL	128 µg/mL	64 µg/mL
–	–	–	–	COc1ccc(Oc2cccc(-c3csc(N=C4NCCCN4)n3)c2)c(C)c1 [Compound I-154]	0.19	0.38	0.04	0.04	256 µg/mL	256 µg/mL	256 µg/mL	256 µg/mL
–	–	–	–	Cc1ccc2c(-c3coc(N=C(N)N)n3)cccc2c1 [Compound I-59]	0.33	0.15	0.39	0.62	256 µg/mL	256 µg/mL	256 µg/mL	256 µg/mL
–	–	–	–	NC(N)=Nc1nc(-c2ccc(Oc3ccccc3)cc2)cs1 [Compound I-3]	1.25	1.25	0.5	1.25	256 µg/mL	256 µg/mL	256 µg/mL	256 µg/mL
–	–	–	–	Clc1sc(N=C2NCCCN2)nc1-c1cccc(Br)c1 [Compound I-175]	1.25	0.5	1.25	1.25	256 µg/mL	256 µg/mL	256 µg/mL	256 µg/mL
–	–	–	–	CC(C)c1cc(-c2nc(N=C3NCCCN3)sc2Cl)cc(C(C)C)c1O [Compound I-168]	0.25	0.28	0.5	0.63	256 µg/mL	256 µg/mL	256 µg/mL	256 µg/mL
–	–	–	–	NC(N)=Nc1nc(-c2cc(F)cc(Oc3ccc(Cl)cc3Cl)c2)cs1 [Compound I-100]	0.13	0.02	0.15	0.18	256 µg/mL	256 µg/mL	128 µg/mL	256 µg/mL
–	–	–	–	Cc1ccc(O)c(-c2c[nH]c(N=C3NCCCN3)n2)c1 [Compound I-170]	0.31	0.12	0.38	0.31	256 µg/mL	256 µg/mL	256 µg/mL	256 µg/mL
256 µg/mL (≈ 675 µM)	256 µg/mL (≈ 675 µM)	256 µg/mL (≈ 675 µM)	256 µg/mL (≈ 675 µM)	NC(N)=Nc1nc(-c2ccccc2Oc2ccc(Cl)cc2Cl)cs1 [Compound I-85]	0.19	0.04	0.26	0.52	–	–	–	–
–	–	–	–	Cn1ccc2cccc(-c3c[se]c(N=C(N)N)n3)c21 [Compound I-72]	0.31	0.25	0.56	0.5	256 µg/mL	256 µg/mL	256 µg/mL	256 µg/mL
–	–	–	–	Cc1oc(N=C(N)N)nc1-c1cccc2ccc(Cl)cc12 [Compound I-63]	0.38	0.75	0.5	0.63	256 µg/mL	256 µg/mL	256 µg/mL	256 µg/mL
–	–	–	–	Cc1sc(N=C2NCCCN2)nc1-c1ccccc1Oc1ccccc1Cl [Compound I-145]	0.13	0.04	0.2	0.28	256 µg/mL	256 µg/mL	256 µg/mL	256 µg/mL
256 µg/mL (≈ 758 µM)	256 µg/mL (≈ 758 µM)	256 µg/mL (≈ 758 µM)	256 µg/mL (≈ 758 µM)	NC(N)=Nc1nc(-c2c(S(N)(=O)=O)csc2Cl)cs1 [Compound I-118]	0.19	1.25	1.25	1.25	–	–	–	–
256 µg/mL (≈ 659 µM)	256 µg/mL (≈ 659 µM)	256 µg/mL (≈ 659 µM)	256 µg/mL (≈ 659 µM)	CS(=O)(=O)c1ccc(Oc2cccc(-c3csc(N=C(N)N)n3)c2)cc1 [Compound I-106]	1.25	1.25	0.53	1.25	–	–	–	–
–	–	–	–	NC(N)=Nc1nc(-c2ccccc2-c2ccccc2)co1 [Compound I-73]	1.25	0.25	1.25	0.52	256 µg/mL	256 µg/mL	256 µg/mL	256 µg/mL
–	–	–	–	NC(N)=Nc1nc(-c2ccccc2Oc2ccccc2Cl)cs1 [Compound I-84]	0.09	0.63	0.27	0.04	256 µg/mL	256 µg/mL	256 µg/mL	256 µg/mL
256 µg/mL (≈ 991 µM)	256 µg/mL (≈ 991 µM)	256 µg/mL (≈ 991 µM)	256 µg/mL (≈ 991 µM)	NC(N)=Nc1nc(-c2cc3ccccc3o2)cs1 [Compound I-112]	1.25	0.51	1.25	0.52	–	–	–	–
–	–	–	–	C[S+]([O-])c1cccc(-c2csc(N=C(N)N)n2)c1 (centres unmarked) [Compound I-27]	1.25	0.51	1.25	1.25	256 µg/mL	256 µg/mL	256 µg/mL	256 µg/mL
